Assay results taken from US20220331414A1, “LIPID COMPOUNDS AND LIPID NANOPARTICLE COMPOSITIONS” (Suzhou Abogen Biosciences Co., Ltd., priority 2020, published 2022).

How the values were obtained:
[1] = Encapsulation efficiency of lipid nanoparticles (Quant-it Ribogreen RNA assay); assay type: physicochemical; conditions: LNP of cationic lipid/DSPC/cholesterol/PEG-lipid 50:10:38.5:1.5 with mRNA
Description: (§1) Briefly, a cationic lipid provided herein, DSPC, cholesterol, and PEG-lipid were solubilized in ethanol at a molar ratio of 50:10:38.5:1.5, and mRNA were diluted in 10 to 50 mM citrate buffer, pH=4. The LNPs were prepared at a total lipid to mRNA weight ratio of approximately 10:1 to 30:1 by mixing the ethanolic lipid solution with the aqueous mRNA solution at a volume ratio of 1:3 using a microfluidic apparatus, total flow rate ranging from 9-30 mL/min. Ethanol were thereby removed and replaced by DPBS using dialysis. Finally, the lipid nanoparticles were filtered through a 0.2 μm sterile filter.
(§2) Lipid nanoparticle size were determined by dynamic light scattering using a Malvern Zetasizer Nano ZS (Malvern UK) using a 173° backscatter detection mode. The encapsulation efficiency of lipid nanoparticles were determined using a Quant-it Ribogreen RNA quantification assay kit (Thermo Fisher Scientific, UK) according to the manufacturer's instructions.

[2] = Lipid nanoparticle size and polydispersity by dynamic light scattering; assay type: physicochemical; conditions: LNP of cationic lipid/DSPC/cholesterol/PEG-lipid 50:10:38.5:1.5 with mRNA
Description: as §1, §2

[3] = Apparent pKa of LNP formulations by TNS fluorescence assay; conditions: LNP cationic lipid/DSPC/cholesterol/DMG-PEG 50/10/38.5/1.5 mol %, pH 3 to 9
Description: TNS was prepared as a 300 uM stock solution in distilled water. LNP formulations were diluted to 0.1 mg/ml total lipid in 3 mL of buffered solutions containing 50 mM sodium citrate, 50 mM sodium phosphate, 50 mM sodium borate, and 30 mM sodium chloride where the pH ranged from 3 to 9. An aliquot of the TNS solution was added to give a final concentration of 0.1 mg/ml and following vortex mixing fluorescence intensity was measured at room temperature in a Molecular Devices Spectramax iD3 spectrometer using excitation and mission wavelengths of 325 nm and 435 nm. A sigmoidal best fit analysis was applied to the fluorescence data and the pKa value was measured as the pH giving rise to half—maximal fluorescent intensity.

Encapsulation Efficiency [1] [%]	polydispersity [2]	size (nm) [2] [nm]	Apparant Pka [3]	Structure (SMILES)
91.4	0.101	70.54	7.003	CCCCCCCCC(CCCC)COP(=O)(NCCN1CCCC1)OCC(CCCC)CCCCCCCC (stereo not shown) [Compound 73]
96.9	0.162	66.97	6.381	CCCCCCCCC(CCCCC)COP(=O)(NCCN1CCCC1)OCC(CCCCC)CCCCCCCC (stereo not shown) [Compound 74]
92.1	0.023	138.2	6.603	CCCCCCCCC(CCCC)COP(=O)(NCCN(CC)CC)OCC(CCCC)CCCCCCCC (stereo not shown) [Compound 75]
76.6	0.24	74.49	4.666	CCCCCCCCC(CCCCCC)COP(=O)(OCCN1CCCC1)OCC(CCCCCC)CCCCCCCC (stereo not shown) [Compound 76]
85.2	0.138	63.36	5.309	CCCCCCCCC(CCCCCC)COP(=O)(OCCN1CCCCC1)OCC(CCCCCC)CCCCCCCC (stereo not shown) [Compound 77]
95.2	0.234	63.03	5.969	CCCCCCCCCCC(CCCCCCCC)COP(=O)(NCCN(CC)CC)OCC(CCCCCCCC)CCCCCCCCCC (stereo not shown) [Compound 78]
96.3	0.053	71.16	6.457	CCCCCCCCCCC(CCCCCCCC)COP(=O)(NCCN1CCCC1)OCC(CCCCCCCC)CCCCCCCCCC (stereo not shown) [Compound 79]
94.2	0.172	57.31	6.259	CCCCCCCCC(CCCCCCCC)COP(=O)(NCCN(CC)CC)OCC(CCCCCCCC)CCCCCCCC [Compound 80]
92.7	0.218	56.41	5.661	CCCCCCCCC(CCCCCCCC)COP(=O)(NCCN1CCCC1)OCC(CCCCCCCC)CCCCCCCC [Compound 81]
86.9	0.138	70.5	6.097	CCCCCCC(CCCCCC)COP(=O)(NCCN(CC)CC)OCC(CCCCCC)CCCCCC [Compound 82]
87.8	0.056	82.63	6.319	CCCCCCC(CCCCCC)COP(=O)(NCCN1CCCC1)OCC(CCCCCC)CCCCCC [Compound 83]
89.9	0.175	52.13	5.484	CCCCCCCC(CCCCCCC)COP(=O)(NCCN(CC)CC)OCC(CCCCCCC)CCCCCCC [Compound 84]
71.7	0.153	53.57	5.216	CCCCCCCC(CCCCCCC)COP(=O)(NCCN1CCCC1)OCC(CCCCCCC)CCCCCCC [Compound 85]
93.8	0.045	66.05	6.303	CCCCCCCCCCC(CCCCCCCCCC)COP(=O)(NCCN1CCCC1)OCC(CCCCCCCCCC)CCCCCCCCCC [Compound 87]
49.0	0.205	179.7	6.571	CC/C=C\CCC(CC/C=C\CC)COP(=O)(NCCN(CC)CC)OCC(CC/C=C\CC)CC/C=C\CC [Compound 88]
85.7	0.242	56.48	5.526	CCCCCCCCC(CCCCCCCC)COP(=O)(NCCN(CC)CC)OCC(CCCCCC)CCCCCC (stereo not shown) [Compound 90]
